Assay results: US12508431B2, “Method and apparatus for electrical current therapy of biological tissue and insulin release therefrom” (ROCKY MOUNTAIN BIPHASIC, INC., priority 2019, dated 2025)

How the values were obtained:
[1] = tested on: INS-1 cells; format: cell-based, rat; conditions: FIG. 5A/5B; for ACBPS-induced insulin release: ACBPS 10 Hz, 25 V; for basal insulin release: mock stimulation
Protocol: A rat insulinoma cell line INS-1 was obtained and were grown in 6-well polystyrene culture plates as attached monolayers in RPMI1640 culture medium supplemented with 10% fetal bovine serum, 10 mM HEPES, 1 mM sodium pyruvate, 2 mM L-glutamine, 0.05 mM 2-mercaptoethanol, 100 IU/mL penicillin and 100 μg/mL streptomycin (i.e., complete medium). Cells were maintained and experiments were conducted in a humidified atmosphere of 5% CO2 in air at 37° C. Select studies were carried out in glucose-free RPMI1640 culture medium supplemented with reagents as described above. In these experiments, the regular medium was exchanged for glucose-free medium 16 hours prior to the electrical stimulation experiment.
ACBPS was applied to cells using a C-Pace EP cell culture stimulator in combination with a C-dish electrode array for a 6-well plate. Control cells were mock stimulated using an identical 6-well C-dish electrode array that was not connected to the stimulator. Unless otherwise stated, the biphasic stimulation parameters were anodal followed by cathodal at 10 Hz (frequency), 5 milliseconds (ms) (total pulse duration), and 25 V (pulse magnitude).
Insulin release from INS-1 cells into the culture medium was determined by ELISA (Rat Insulin ELISA Kit) per the manufacturer's instructions. For these studies, cells were grown to approximately 95% confluency in 6-well plates containing 3 mL complete medium/well. 16 hours before stimulation, the medium was replaced with 3 mL fresh complete medium. Immediately prior to stimulation, the medium was aspirated, the cells were washed twice with 2 mL phosphate buffered saline (PBS), and then 3 mL fresh complete medium was added to each well. Cells were subjected to ACBPS (10 Hz, (2.5 ms)/(2.5 ms) pulse duration (i.e. anodal duration/cathodal duration), 10-25 V magnitude) or mock stimulation for the indicated times. At the end of the stimulation periods, a 0.5 mL sample of medium was removed from each well and stored frozen at −70° C. for later analysis. In some studies, cells were grown for 16 hours in glucose-free medium prior to stimulation. To examine a role for electrolysis products in promoting insulin release, an additional series of experiments were conducted that involved the application of ACBPS (10 Hz, (2.5 ms)/(2.5 ms) pulse duration, 25 V magnitude) or no stimulation (mock) for 30 min to 6-well plates containing only complete medium (3 mL per well) (i.e., no cells). At the end of the stimulation period, the “pre-stimulated” medium was transferred to cells that had been washed twice with PBS (as above). The cells were allowed to incubate with the pre-stimulated medium for 30 min, after which a 0.5 mL sample of medium was removed from each well and stored frozen at −70° C. for latter analysis. The insulin concentration of the culture medium was measured by colorimetric ELISA using 2 μL of the culture medium as described by the manufacturer. Culture medium samples and insulin standards were allowed to bind for 16 hours at 4° C.

[2] = tested on: INS-1 cells; assay: Transmembrane potential assay by DiBAC4(3) staining; format: cell-based, rat; conditions: 30 min in staining buffer with 5 μM DiBAC4(3), valinomycin 100 nM, gramicidin 100 nM, KCl 140 mM, FIG. 8A
Protocol: The transmembrane potential (TMP) was estimated using DiBAC4(3) staining as previously described. For these studies, INS-1 cells were grown to 95% confluency in 6-well plates. The medium was aspirated, replaced with 3 mL fresh complete medium per well, and subjected to mock stimulation or ACBPS (10 Hz, (2.5 ms)/(2.5 ms) pulse duration, 25 V magnitude) for 30 min. Immediately following the stimulation period, the medium was aspirated from each well and replaced with 2 mL per well staining buffer (20 mM HEPES, 120 mM NaCl, 2 mM KCl, 2 mM CaCl2), 1 mM MgCl2, and 5 mM glucose [pH 7.4]) containing 5 μM DiBAC4(3) with DMSO (mock and ACBPS), valinomycin (100 nM), gramicidin (100 nM) or KCl (140 mM). The cells were allowed to incubate in staining buffer at 37° C. for 30 min. Thereafter, the fluorescence intensity of DiBAC4(3) stained INS-1 cells (Ex 490 nm/Em 516 nm) was measured using a BioTek Synergy H1 plate reader programmed to acquire 49 (7×7) individual measurements per well.

Molecule | ACBPS-induced insulin release [1] | basal insulin release [1] | DiBAC4(3) fluorescence [2]
Antimycin A | inhibited | inhibited | 
COc1ccc(CCN(C)CCCC(C#N)(c2ccc(OC)c(OC)c2)C(C)C)cc1OC (centres unmarked) [verapamil] |  | inhibited | 
gramicidin A |  |  | increased
CC[C@@H]1/C=C/C=C/C[C@H](C)[C@H](O)[C@](C)(O)C(=O)[C@H](C)[C@@H](O)[C@H](C)C(=O)[C@H](C)[C@@H](O)[C@H](C)/C=C/C(=O)O[C@H]2[C@@H](C)[C@@H](CC1)O[C@@]1(CC[C@@H](C)[C@@H](C[C@H](C)O)O1)[C@@H]2C [oligomycin A] | inhibited | inhibited | 
CC(C)[C@@H]1NC(=O)[C@H](C)OC(=O)[C@@H](C(C)C)NC(=O)[C@@H](C(C)C)OC(=O)[C@H](C(C)C)NC(=O)[C@H](C)OC(=O)[C@@H](C(C)C)NC(=O)[C@@H](C(C)C)OC(=O)[C@H](C(C)C)NC(=O)[C@H](C)OC(=O)[C@@H](C(C)C)NC(=O)[C@@H](C(C)C)OC1=O [valinomycin] |  |  | decrease
[Cl-].[K+] [KCl] |  |  | increased
